Assay results as given in US11149018B2, “Substituted N-arylethyl-2-aminoquinoline-4-carboxamides and use thereof” (Bayer Aktiengesellschaft, priority 2017, dated 2021).
pIC50: −log10 of the molar value.

Molecular target: FP receptor (Homo sapiens (Human), UniProt P43088)
Experiment: In vitro test of inhibition of human FP receptor activity (PGF2α-induced calcium flux in FP-expressing CHEM1 cells)
Format: cell-based
Conditions: PGF2α 2 nM, some mean values of multiple determinations
Procedure, shortened: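 FP antagonism in FP-expressing CHEM1 cells loaded with Fluo-8. Compound preincubated 10 min at 37° C, then receptor stimulated with 2 nM (final) PGF2α in calcium-free Tyrode with 2 mM CaCl2.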

Sequence of FP receptor (P43088 whole entry): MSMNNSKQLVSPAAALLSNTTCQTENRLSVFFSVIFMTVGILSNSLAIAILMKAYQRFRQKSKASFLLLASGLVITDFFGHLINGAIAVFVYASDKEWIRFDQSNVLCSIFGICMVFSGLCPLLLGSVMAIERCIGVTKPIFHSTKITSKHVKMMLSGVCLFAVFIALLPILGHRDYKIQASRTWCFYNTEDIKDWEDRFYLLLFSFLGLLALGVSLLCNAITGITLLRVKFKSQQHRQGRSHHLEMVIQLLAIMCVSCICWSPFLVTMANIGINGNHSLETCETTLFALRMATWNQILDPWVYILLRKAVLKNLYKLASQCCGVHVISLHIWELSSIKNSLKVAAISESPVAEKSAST

Going from `Cc1c(N2CCCC2)nc2ccc(Br)cc2c1C(=O)NCC(CCC(=O)O)c1ccccc1C(F)(F)F` (single isomer, unassigned; (-)) [Example 280, (−)-5-[({6-Bromo-3-methyl-2-[(^2H8)pyrrolidin-1-yl]quinolin-4-yl}carbonyl)amino]-4-[2-(trifluoromethyl)phenyl]pentanoic acid] to `CCC1CCCN(c2nc3ccc(Br)cc3c(C(=O)NCC(CCC(=O)O)c3ccccc3Cl)c2C)C1` (single isomer, unassigned; (-)) [Example 59, (−)-5-[({6-Bromo-2-[3-ethylpiperidin-1-yl]-3-methylquinolin-4-yl}carbonyl)amino]-4-(2-chlorophenyl)pentanoic acid], the pIC50 falls from 8.62 to 7.96 (0.66 log units). The first is the more potent here.

First: Cc1c(N2CCCC(F)C2)nc2ccc(Br)cc2c1C(=O)NCC(CCC(=O)O)c1c(Cl)ccc(Cl)c1Cl (single isomer, unassigned) [Example 223, 5-[({6-Bromo-2-[3-fluoropiperidin-1-yl]-3-methylquinolin-4-yl}carbonyl)amino]-4-(2,3,6-trichlorophenyl)pentanoic acid]
Second: Cc1c(N2CCCC(F)(F)C2)nc2ccc(Br)cc2c1C(=O)NCC(CCC(=O)O)c1cc(F)ccc1F (racemic) [Example 261, (+/−)-5-({[6-Bromo-2-(3,3-difluoropiperidin-1-yl)-3-methylquinolin-4-yl]carbonyl}amino)-4-(2,5-difluorophenyl)pentanoic acid]
The pIC50 of the first is 0.70 log units lower: 6.85 for the first, 7.55 for the second.

First: Cc1c(N2CCCC(C)C2)nc2ccc(Br)cc2c1C(=O)NCC(CCC(=O)O)c1cc(F)ccc1Cl (centres unmarked) [Example 17, 5-[({6-Bromo-3-methyl-2-[3-methylpiperidin-1-yl]quinolin-4-yl}carbonyl)amino]-4-(2-chloro-5-fluorophenyl)pentanoic acid]
Second: Cc1c(NCCc2ccccc2)nc2ccc(Br)cc2c1C(=O)NCC(CCC(=O)O)c1ccccc1Cl (racemic) [Example 94, (+/−)-5-[({6-Bromo-3-methyl-2-[(2-phenylethyl)amino]quinolin-4-yl}carbonyl)amino]-4-(2-chlorophenyl)pentanoic acid]
The pIC50 of the first is 0.57 log units higher: 8.39 for the first, 7.82 for the second. The first is the more potent here.

With `Cc1ccc(F)cc1C(CCC(=O)O)CNC(=O)c1c(C)c(N2CCCCC2)nc2ccc(Br)cc12` (single isomer, unassigned; (-)) [Example 148, (−)-5-({[6-Bromo-3-methyl-2-(piperidin-1-yl)quinolin-4-yl]carbonyl}amino)-4-(5-fluoro-2-methylphenyl)pentanoic acid] the pIC50 was 8.35.
Going from `Cc1ccc(F)cc1C(CCC(=O)O)CNC(=O)c1c(C)c(N2CCCCC2)nc2ccc(Br)cc12` (single isomer, unassigned; (+)) [Example 149, (+)-5-({[6-Bromo-3-methyl-2-(piperidin-1-yl)quinolin-4-yl]carbonyl}amino)-4-(5-fluoro-2-methylphenyl)pentanoic acid] to `Cc1c(N2CCCC(F)C2)nc2ccc(Br)cc2c1C(=O)NCC(CCC(=O)O)c1ccccc1Cl` (centres unmarked) [Example 78, 5-[({6-Bromo-2-[3-fluoropiperidin-1-yl]-3-methylquinolin-4-yl}carbonyl)amino]-4-(2-chlorophenyl)pentanoic acid], the pIC50 rises from 7.89 to 8.36 (0.47 log units).

Going from `COc1ccccc1C(CCC(=O)O)CNC(=O)c1c(C)c(N2CCCC2)nc2ccc(Br)cc12` (single isomer, unassigned; (-)) [Example 238, (−)-5-({[6-Bromo-3-methyl-2-(pyrrolidin-1-yl)quinolin-4-yl]carbonyl}amino)-4-(2-methoxyphenyl)pentanoic acid] to `Cc1c(N2CCCC(C)(C)C2)nc2ccc(Br)cc2c1C(=O)NCC(CCC(=O)O)c1ccccc1Cl` (single isomer, unassigned; (+)) [Example 44, (+)-5-({[6-Bromo-2-(3,3-dimethylpiperidin-1-yl)-3-methylquinolin-4-yl]carbonyl}amino)-4-(2-chlorophenyl)pentanoic acid], the pIC50 falls from 7.36 to 6.92 (0.44 log units).

Going from `Cc1c(N2CCCC2)nc2ccc(Br)cc2c1C(=O)NCC(CCC(=O)O)c1ccccc1OC(F)(F)F` (single isomer, unassigned; (+)) [Example 131, (+)-5-({[6-Bromo-3-methyl-2-(pyrrolidin-1-yl)quinolin-4-yl]carbonyl}amino)-4-[2-(trifluoromethoxy)phenyl]pentanoic acid] to `Cc1c(N2CC(F)C(F)C2)nc2ccc(Br)cc2c1C(=O)NCC(CCC(=O)O)c1ccccc1Cl` (stereo not drawn) [Example 69, 5-[({6-Bromo-2-[trans-3,4-difluoropyrrolidin-1-yl]-3-methylquinolin-4-yl}carbonyl)amino]-4-(2-chlorophenyl)pentanoic acid], the pIC50 falls from 8.01 to 7.38 (0.63 log units). The first is the more potent here.

First: Cc1c(N2CCCC2)nc2ccc(Br)cc2c1C(=O)NCC(CCC(=O)O)c1c(F)cccc1F (single isomer, unassigned; (-)) [Example 249, (−)-5-({[6-Bromo-3-methyl-2-(pyrrolidin-1-yl)quinolin-4-yl]carbonyl}amino)-4-(2,6-difluorophenyl)pentanoic acid]
Second: Cc1c(N2CCCCC2)nc2ccc(Br)cc2c1C(=O)NCC(CCC(=O)O)c1c(F)cccc1OC(F)F (racemic) [Example 182, (+/−)-5-({[6-Bromo-3-methyl-2-(piperidin-1-yl)quinolin-4-yl]carbonyl}amino)-4-[2-(difluoromethoxy)-6-fluorophenyl]pentanoic acid]
The pIC50 of the first is 0.51 log units lower: 8.03 for the first, 8.54 for the second. The second is the more potent here.

Compared with `Cc1c(N2CCCC(F)(F)C2)nc2ccc(Br)cc2c1C(=O)NCC(CCC(=O)O)c1c(Cl)cccc1Cl` (single isomer, unassigned; (-)) [Example 265, (−)-5-({[6-Bromo-2-(3,3-difluoropiperidin-1-yl)-3-methylquinolin-4-yl]carbonyl}amino)-4-(2,6-dichlorophenyl)pentanoic acid], `Cc1c(N2CCCC(F)C2)nc2ccc(Br)cc2c1C(=O)NCC(CCC(=O)O)c1ccccc1C(F)(F)F` (single isomer, unassigned) [Example 191, 5-[({6-Bromo-2-[3-fluoropiperidin-1-yl]-3-methylquinolin-4-yl}carbonyl)amino]-4-[2-(trifluoromethyl)phenyl]pentanoic acid] is 0.50 log units higher in pIC50: 7.89 for the first, 8.39 for the second.

Going from `Cc1c(N2CCCC(F)(F)C2)nc2ccc(Br)cc2c1C(=O)NCC(CCC(=O)O)c1c(Cl)ccc(Cl)c1Cl` (single isomer, unassigned; (+)) [Example 178, (+)-5-({[6-Bromo-2-(3,3-difluoropiperidin-1-yl)-3-methylquinolin-4-yl]carbonyl}amino)-4-(2,3,6-trichlorophenyl)pentanoic acid] to `Cc1c(N2CCCC(F)C2)nc2ccc(Br)cc2c1C(=O)NCC(CCC(=O)O)c1ccccc1Cl` (single isomer, unassigned; (+)) [Example 187, (+)-5-[({6-Bromo-2-[3-fluoropiperidin-1-yl]-3-methylquinolin-4-yl}carbonyl)amino]-4-(2-chlorophenyl)pentanoic acid], the pIC50 rises from 7.25 to 7.62 (0.37 log units).

Going from `Cc1c(N2CCN(C)CC2)nc2ccc(Br)cc2c1C(=O)NCC(CCC(=O)O)c1ccccc1Cl` (racemic) [Example 54, (+/−)-5-({[6-Bromo-3-methyl-2-(4-methylpiperazin-1-yl)quinolin-4-yl]carbonyl}amino)-4-(2-chlorophenyl)pentanoic acid] to `Cc1ccc(F)cc1C(CCC(=O)O)CNC(=O)c1c(C)c(N2CCCCC2)nc2ccc(Br)cc12` (racemic) [Example 147, (+/−)-5-({[6-Bromo-3-methyl-2-(piperidin-1-yl)quinolin-4-yl]carbonyl}amino)-4-(5-fluoro-2-methylphenyl)pentanoic acid], the pIC50 rises from 6.07 to 8.10 (2.03 log units). The second is the more potent here.

Going from `Cc1c(N2C[C@@H](C)O[C@@H](C)C2)nc2ccc(Br)cc2c1C(=O)NCC(CCC(=O)O)c1cc(F)ccc1Cl` (mixture of isomers) [Example 12, (+/−)-5-[({6-Bromo-2-[cis-2,6-dimethylmorpholin-4-yl]-3-methylquinolin-4-yl}carbonyl)amino]-4-(2-chloro-5-fluorophenyl)pentanoic acid] to `Cc1c(N2CC(F)(F)C2)nc2ccc(Br)cc2c1C(=O)NCC(CCC(=O)O)c1ccccc1Cl` (racemic) [Example 75, (+/−)-5-({[6-Bromo-2-(3,3-difluoroazetidin-1-yl)-3-methylquinolin-4-yl]carbonyl}amino)-4-(2-chlorophenyl)pentanoic acid], the pIC50 rises from 6.66 to 6.92 (0.26 log units).

Compared with `Cc1ccccc1C(CCC(=O)O)CNC(=O)c1c(C)c(N2CCCC2)nc2ccc(Br)cc12` (single isomer, unassigned; (+)) [Example 233, (+)-5-({[6-Bromo-3-methyl-2-(pyrrolidin-1-yl)quinolin-4-yl]carbonyl}amino)-4-(2-methylphenyl)pentanoic acid], `CCC1CCCN(c2nc3ccc(Br)cc3c(C(=O)NCC(CCC(=O)O)c3ccccc3OC(F)(F)F)c2C)C1` (single isomer, unassigned; (+)) [Example 208, (+)-5-[({6-Bromo-2-[3-ethylpiperidin-1-yl]-3-methylquinolin-4-yl}carbonyl)amino]-4-[2-(trifluoromethoxy)phenyl]pentanoic acid] is 1.77 log units higher in pIC50: 7.08 for the first, 8.85 for the second.

Compared with `Cc1c(NC2CCC2)nc2ccc(Br)cc2c1C(=O)NCC(CCC(=O)O)c1ccccc1Cl` (racemic) [Example 97, (+/−)-5-({[6-Bromo-2-(cyclobutylamino)-3-methylquinolin-4-yl]carbonyl}amino)-4-(2-chlorophenyl)pentanoic acid], `Cc1c(N2CCCCC2)nc2ccc(Br)cc2c1C(=O)NCC(CCC(=O)O)c1c(F)cccc1OC(F)F` (single isomer, unassigned; (+)) [Example 184, (+)-5-({[6-Bromo-3-methyl-2-(piperidin-1-yl)quinolin-4-yl]carbonyl}amino)-4-[2-(difluoromethoxy)-6-fluorophenyl]pentanoic acid] is 1.61 log units higher in pIC50: 6.28 for the first, 7.89 for the second. The second is the more potent here.

Compared with “(+)-5-({[6-Bromo-3-methyl-2-(piperidin-1-yl)quinolin-4-yl]carbonyl}amino)-4-(2,3,6-trichlorophenyl)pentanoic acid [Example 175]”, `Cc1c(N2CCCC(F)C2)nc2ccc(Br)cc2c1C(=O)NCC(CCC(=O)O)c1c(Cl)ccc(Cl)c1Cl` (centres unmarked) [Example 180, 5-[({6-Bromo-2-[3-fluoropiperidin-1-yl]-3-methylquinolin-4-yl}carbonyl)amino]-4-(2,3,6-trichlorophenyl)pentanoic acid] is 1.05 log units higher in pIC50: 6.80 for the first, 7.85 for the second.
